Molecular target: μ-opioid receptor (Homo sapiens (Human), UniProt P35372)
Experiment: μ-opioid receptor [35S]GTPγS functional assay, HEK-293 or CHO cells (Table 4)
Assay type: biochemical
Conditions: for Emax: relative to DAMGO; for EC50: μ GTP
Procedure: μ-Opioid Receptor Functional Assay Procedures: [^35S]GTPγS functional assays were conducted using freshly thawed μ-receptor membranes prepared in-house from a cell line expressing recombinant μ opioid receptor in a HEK-293, CHO or U-2 OS cell background, or purchased from a commercial source (Perkin Elmer, Shelton, Conn.; or DiscovRx, Fremont, Calif.). Assay reactions were prepared by sequentially adding the following reagents to binding buffer (100 mM NaCl, 10 mM MgCl2, 20 mM HEPES, pH 7.4) on ice (final concentrations indicated): membrane protein (0.026 mg/mL), saponin ([…]), GDP ([…]) and [^35S]GTPγS (0.20 nM; Perkin Elmer, Shelton, Conn.). The prepared membrane solution (190 μl/well) was transferred to 96-shallow well polypropylene plates containing 10 μl of 20× concentrated stock solutions of the agonist [D-Ala^2, N-methyl-Phe^4 Gly-ol^5]-enkephalin (DAMGO) prepared in dimethyl sulfoxide (DMSO). Plates were incubated for 30 min at about 25° C. with shaking Reactions were terminated by rapid filtration onto 96-well Unifilter GF/B filter plates (Perkin Elmer, Shelton, Conn.) using a 96-well tissue harvester (Perkin Elmer, Shelton, Conn.) followed by three filtration washes with 200 μl of ice-cold wash buffer (10 mM NaH2PO4, 10 mM Na2HPO4, pH 7.4). Filter plates were subsequently dried at 50° C. for 2-3 hours. BetaScint scintillation cocktail (Perkin Elmer, Shelton, Conn.) was added (50 μl/well) and plates were counted using a Packard Top-Count for 1 min/well. Data were analyzed using the sigmoidal dose-response curve fitting functions in GraphPad PRISM v. 3.0, or an in-house function for non-linear, sigmoidal dose-response curve-fitting. [^35S]GTPγS functional assays can also be conducted using freshly thawed μ-receptor membranes prepared from a cell line expressing recombinant μ opioid receptor in a CHO-K1 cell background.
μ GTP Emax (%) is the maximal effect elicited by a compound relative to the effect elicited by DAMGO, a standard μ agonist.
In TABLE 4, activity response of certain Compounds of the Invention to the μ- and κ-opioid receptors was determined as described above for functional assays using HEK-293 or CHO cells.

SMILES	Emax [%]	EC50 (bound given in μM) [µM]	EC50 [µM]
O=C(NCCCN1CCOCC1)[C@@H]1C[C@]23CCN(CC4CC4)[C@H](Cc4ccc(O)cc42)[C@]3(O)C1 [Compound 85, (2R,3aS,4R,9bS)-12-(cyclopropyl-methyl)-3a,8-dihydroxy-N-(3-morpholinopropyl)-1,2,3,3a,4,5-hexahydro-4,9b-(epimino-ethano)cyclopenta[a]naphthalene-2-carboxamide]	-1	> 20	
Oc1ccc2c(c1)C13CCN(CC4CC4)[C@H](C2)[C@]1(O)C[C@H](N(Cc1ccccc1)Cc1ccccc1)C3 (stereo in doubt) [Compound 81, (2R,3aS,4R,9bS)-12-(cyclopropyl-methyl)-2-(dibenzylamino)-2,3,4,5-tetrahydro-4,9b-(epiminoethano)-cyclopenta-[a]naphthalene-3a,8(1H)-diol]	19 ± 1.53	> 20	
Oc1ccc2c(c1)C13CCN(CC4CC4)[C@H](C2)[C@]1(O)C[C@H](NCc1ccccc1)C3 (stereo in doubt) [Compound 80, (2R,3aS,4R,9bS)-2-(benzylamino)-12-(cyclopropylmethyl)-2,3,4,5-tetrahydro-4,9b-(epiminoethano)-cyclopenta-[a]naphthalene-3a,8(1H)-diol]	1	> 20	
O=C(Nc1ccccc1)N[C@@H]1CC23CCN(CC4CC4)[C@H](Cc4ccc(O)cc42)[C@]3(O)C1 (stereo in doubt) [Compound 83, 1-((2R,3aS,4R,9bS)-12-(cyclopropyl-methyl)-3a,8-dihydroxy-1,2,3,3a,4,5-hexahydro-4,9b-(epiminoethano)cyclo-penta[a]naphthalen-2-yl)-3-phenylurea]	0	> 20	
O=C(NCCN1CCOCC1)[C@@H]1C[C@]23CCN(CC4CC4)[C@H](Cc4ccc(O)cc42)[C@]3(O)C1 [Compound 84, (2R,3aS,4R,9bS)-12-(cyclopropyl-methyl)-3a,8-dihydroxy-N-(2-morpholinoethyl)-1,2,3,3a,4,5-hexahydro-4,9b-(epimino-ethano)cyclopenta[a]naphthalene-2-carboxamide]	19.7 ± 1.67		0.0717 ± 0.0237
O=C(NCc1ccncc1)[C@@H]1C[C@]23CCN(CC4CC4)[C@H](Cc4ccc(O)cc42)[C@]3(O)C1 [Compound 90, (2R,3aS,4R,9bS)-12-(cyclopropylmethyl)-3a,8-dihydroxy-N-(pyridin-4-ylmethyl)-1,2,3,3a,4,5-hexahydro-4,9b-(epimino-ethano)cyclopenta[a]naphthalene-2-carboxamide]	8.14 ± 1.3	> 20	
O=C(NCc1cccnc1)[C@H]1C[C@]23CCN(CC4CC4)[C@H](Cc4ccc(O)cc42)[C@]3(O)C1 [Compound 92, (2S,3aS,4R,9bS)-12-(cyclopropylmethyl)-3a,8-dihydroxy-N-(pyridin-3-ylmethyl)-1,2,3,3a,4,5-hexahydro-4,9b-(epimino-ethano)cyclopenta[a]naphthalene-2-carboxamide]	-1	> 20	
O=C([C@@H]1C[C@]23CCN(CC4CC4)[C@H](Cc4ccc(O)cc42)[C@]3(O)C1)N1CCC(N2CCCC2)CC1 [Compound 88, ((2R,3aS,4R,9bS)-12-(cyclopropylmethyl)-3a,8-dihydroxy-1,2,3,3a,4,5-hexahydro-4,9b-(epiminoethano)cyclopenta-[a]naphthalen-2-yl)(4-(pyrrolidin-1-yl)piperidin-1-yl)methanone]	0	> 20	
O=C(NCCCN1CCOCC1)[C@H]1C[C@]23CCN(CC4CC4)[C@H](Cc4ccc(O)cc42)[C@]3(O)C1 [Compound 91, (2S,3aS,4R,9bS)-12-(cyclopropylmethyl)-3a,8-dihydroxy-N-(3-morpholinopropyl)-1,2,3,3a,4,5-hexahydro-4,9b-(epimino-ethano)cyclopenta[a]naphthalene-2-carboxamide]	-1	> 20	
